Experimental data taken from patent US20040198811A1 (H. Lundbeck A/S, priority 2001, published 2004).

Assays:
Assay type in all cases: in vivo
[1] = tested on: primary care patients with major depression disorder; test: 8-week, double-blind, randomised, placebo-controlled, flexible-dose clinical study
Source text: (§1) This has i.a. been found in the Chronic Mild Stress model (Willner P., Psychopharmachology 1997, 134, 319-329).
A total of 471 patients were randomised into the study. The all-patient-treated set comprised 469 patients and the full-analysis set comprised 468 patients.
There was an approximately 3 to 1 ratio of women to men in each treatment group, and almost all patients were Caucasian. The mean age was 43 years (SD 11). At baseline, the mean MADRS total score was approximately 29 for the treatment group, which signifies moderate to severely ill patients.

[2] = fixed dose studies (MADRS rating scale and Clinical Global Impression); conditions: escitalopram in a dose of 10 mg
[3] = tested on: animal models; test: Chronic Mild Stress model
Source text: as §1

[4] = pharmacological and clinical studies (effect of R-citalopram, potency versus racemate)
Source text: This may be shown in functional in-vivo pharmacological models and studies of 5-HT-reuptake effect and or in behaviour models, for example depression models.

[5] = Week 4, last observation carried forward, 10 mg escitalopram, 20 mg citalopram

Which onset of effect ([1]; 10 mg escitalopram, 20 mg citalopram, versus placebo) does the source give for “(S)-1-[3-(dimethylamino)propyl]-1-4-fluorophenyl)-1,3-dihydro-5-isobenzofurancarbonitdile [escitalopram]” here?
Its onset of effect is “showed effects after one week”.

And the “therapeutic effect versus placebo on adjusted mean change in MADRS total score” value ([1]; Week 1 (p=0.023) to Week 4, observed cases)?
Its value is “significantly superior therapeutic effect”.

What about the “CGI improvement and severity subscale versus placebo” value ([1]; Week 4, last observation carried forward) of the same compound?
The value was “statistically significantly superior to placebo”.

And the “adjusted mean change in MADRS total score versus placebo” value [1, 5]?
Its value is 2.7 points.

And the “CGI improvement and severity subscale versus placebo” value ([1]; from Week 1 onwards, 4-week period, observed cases)?
Its value is “significantly superior to placebo”.

And the “effect as determined by MADRS rating scale and Clinical Global Impression (severity and improvement)” value [2]?
The value was “at least same effect as citalopram in a dose of 40 mg”.

What about the speed of response [3] of the same compound?
Its speed of response is “faster response than citalopram-racemate”.

What about the “potency relative to the racemate” value ([4]; pharmacological and clinical studies) of the same compound?
The value was “substantially more than two times as potent as the racemate”.

For CN(C)CCCC1(c2ccc(F)cc2)OCc2cc(C#N)ccc21 (racemic) [citalopram, reference compound], which “adjusted mean change in MADRS total score versus placebo” value [1, 5] is on record?
Its value is 1.5 points.

For CN(C)CCC[C@]1(c2ccc(F)cc2)OCc2cc(C#N)ccc21 [R-citalopram, reference compound], which “impact on the effect of escitalopram” value ([4]; in vivo) is on record?
The value was “negative impact”.
